“And” between values parts separate entries of the source, which are not always exact repeats. Equal values may be shown once. Results filed as inconclusive are left out.
Tested on: BDF1 mice, Friend leukemia sc, tumor weight T/C
Experiment: NCI In Vivo Anticancer Drug Screen. Data for tumor model Friend Virus Leukemia (Solid) (subcutaneous) in B6D2F1 (BDF1) mice
Conditions: endpoint: mean tumor weight, higher = larger tumour
Procedure: The antitumor activity of compounds was measured in mice bearing transplantable tumors. Survival or tumor size were measured and the results are expressed as the measurement made in the treated group (T) divided by the measurement made in the vehicle treated control group (C). The tumor model used in this assay is Friend Virus Leukemia (Solid) (subcutaneous) in B6D2F1 (BDF1) mice

[1] = dose: 37.5 mg/kg/injection, schedule: Q01DX011 (ip), vehicle: saline
[2] = dose: 50.0 mg/kg/injection, schedule: Q01DX011 (ip), vehicle: saline
[3] = dose: 15.0 mg/kg/injection, schedule: Q01DX011 (ip), vehicle: saline
[4] = dose: 3.0 mg/kg/injection, schedule: Q01DX011 (ip), vehicle: carboxymethylcellulose (CMC)
[5] = dose: 25.0 mg/kg/injection, schedule: Q01DX011 (ip), vehicle: carboxymethylcellulose (CMC)
[6] = dose: 50.0 mg/kg/injection, schedule: Q01DX011 (ip), vehicle: carboxymethylcellulose (CMC)
[7] = dose: 0.5 mg/kg/injection, schedule: Q01DX011 (ip), vehicle: carboxymethylcellulose (CMC)
[8] = dose: 1.0 mg/kg/injection, schedule: Q01DX011 (ip), vehicle: carboxymethylcellulose (CMC)
[9] = dose: 18.0 mg/kg/injection, schedule: Q01DX011 (ip), vehicle: carboxymethylcellulose (CMC)
[10] = dose: 125.0 mg/kg/injection, schedule: Q01DX011 (ip), vehicle: carboxymethylcellulose (CMC)

## CC(=O)OCC(=O)[C@@]1(O)CC[C@H]2[C@@H]3CCC4=CC(=O)CC[C@]4(C)[C@H]3C(=O)C[C@@]21C
dose: 5.62 mg/kg/injection, schedule: Q01DX011 (sc), vehicle: steriod suspending solution
  T/C: 59 % of control
dose: 8.0 mg/kg/injection, schedule: Q01DX011 (sc), vehicle: steriod suspending solution
  T/C: 97 % of control
dose: 11.25 mg/kg/injection, schedule: Q01DX011 (sc), vehicle: steriod suspending solution
  T/C: 33 % of control
dose: 16.0 mg/kg/injection, schedule: Q01DX011 (sc), vehicle: steriod suspending solution
  T/C: 69 % of control
dose: 22.5 mg/kg/injection, schedule: Q01DX011 (sc), vehicle: steriod suspending solution
  T/C: 21 % of control
dose: 31.0 mg/kg/injection, schedule: Q01DX011 (sc), vehicle: steriod suspending solution
  T/C: 15 % of control and 29 % of control (2×)
dose: 34.0 mg/kg/injection, schedule: Q01DX011 (sc), vehicle: steriod suspending solution
  T/C: 50 % of control
dose: 45.0 mg/kg/injection, schedule: Q01DX011 (sc), vehicle: steriod suspending solution
  T/C: 13 % of control
dose: 62.0 mg/kg/injection, schedule: Q01DX011 (sc), vehicle: steriod suspending solution
  T/C: 7 % of control and 9 % of control and 18 % of control
dose: 68.0 mg/kg/injection, schedule: Q01DX011 (sc), vehicle: steriod suspending solution
  T/C: 28 % of control
dose: 125.0 mg/kg/injection, schedule: Q01DX011 (sc), vehicle: steriod suspending solution
  T/C: 3 % of control and 15 % of control and 20 % of control
dose: 250.0 mg/kg/injection, schedule: Q01DX011 (sc), vehicle: steriod suspending solution
  T/C: 3 % of control and 6 % of control and 20 % of control

## CN(C)c1nc(N(C)C)nc(N(C)C)n1
dose: 3.75 mg/kg/injection, schedule: Q01DX011 (ip), vehicle: other
  T/C: 104 % of control
dose: 7.5 mg/kg/injection, schedule: Q01DX011 (ip), vehicle: other
  T/C: 83 % of control
dose: 15.0 mg/kg/injection, schedule: Q01DX011 (ip), vehicle: other
  T/C: 112 % of control
dose: 30.0 mg/kg/injection, schedule: Q01DX011 (ip), vehicle: other
  T/C: 84 % of control

## CN(C)c1ccc(/C=C/c2ccnc3ccccc23)cc1
[1]
  T/C: 73 % of control
[2]
  T/C: 51 % of control

## C=CCn1c(=O)n(CC=C)c(=O)n(CC=C)c1=O
dose: 22.5 mg/kg/injection, schedule: Q01DX011 (ip), vehicle: saline
  T/C: 77 % of control
dose: 45.0 mg/kg/injection, schedule: Q01DX011 (ip), vehicle: saline
  T/C: 103 % of control
dose: 90.0 mg/kg/injection, schedule: Q01DX011 (ip), vehicle: saline
  T/C: 64 % of control
dose: 180.0 mg/kg/injection, schedule: Q01DX011 (ip), vehicle: saline
  T/C: 82 % of control

## CN(N=O)C(N)=O
dose: 4.0 mg/kg/injection, schedule: Q01DX011 (ip), vehicle: carboxymethylcellulose (CMC)
  T/C: 94 % of control and 95 % of control
dose: 5.0 mg/kg/injection, schedule: Q01DX011 (ip), vehicle: saline
  T/C: 53 % of control
dose: 8.0 mg/kg/injection, schedule: Q01DX011 (ip), vehicle: carboxymethylcellulose (CMC)
  T/C: 98 % of control and 117 % of control
dose: 10.0 mg/kg/injection, schedule: Q01DX011 (ip), vehicle: saline
  T/C: 31 % of control
[3]
  T/C: 20 % of control
dose: 16.0 mg/kg/injection, schedule: Q01DX011 (ip), vehicle: carboxymethylcellulose (CMC)
  T/C: 46 % of control and 49 % of control
dose: 22.0 mg/kg/injection, schedule: Q01DX011 (ip), vehicle: saline
  T/C: 22 % of control
dose: 30.0 mg/kg/injection, schedule: Q01DX011 (ip), vehicle: carboxymethylcellulose (CMC)
  T/C: 59 % of control

## O=S(=O)(O)c1cccnc1
dose: 39.0 mg/kg/injection, schedule: Q01DX011 (ip), vehicle: carboxymethylcellulose (CMC)
  T/C: 86 % of control and 101 % of control
dose: 157.0 mg/kg/injection, schedule: Q01DX011 (ip), vehicle: carboxymethylcellulose (CMC)
  T/C: 98 % of control and 110 % of control

## CC(C)Sc1nc(N)nc2nc[nH]c12
[4]
  T/C: 97 % of control
[5]
  T/C: 14 % of control
[6]
  T/C: 2 % of control

## N#C[C@@H]1C2C=CC(CC2)[C@H]1C#N
[7]
  T/C: 97 % of control
[8]
  T/C: 71 % of control
dose: 2.0 mg/kg/injection, schedule: Q01DX011 (ip), vehicle: carboxymethylcellulose (CMC)
  T/C: 83 % of control

## O=C(O)c1ccc(-c2ccccc2)cc1
[6]
  T/C: 103 % of control

## CC(/C=N/N=C(N)N)=N\N=C(N)N
dose: 12.5 mg/kg/injection, schedule: Q01DX011 (ip), vehicle: saline
  T/C: 155 % of control
dose: 25.0 mg/kg/injection, schedule: Q01DX011 (ip), vehicle: saline
  T/C: 190 % of control
[2]
  T/C: 169 % of control

## COS(C)(=O)=O
dose: 9.0 mg/kg/injection, schedule: Q01DX011 (ip), vehicle: carboxymethylcellulose (CMC)
  T/C: 167 % of control
dose: 9.37 mg/kg/injection, schedule: Q01DX011 (ip), vehicle: saline
  T/C: 116 % of control
[9]
  T/C: 98 % of control
dose: 18.75 mg/kg/injection, schedule: Q01DX011 (ip), vehicle: saline
  T/C: 114 % of control
[1]
  T/C: 85 % of control
dose: 75.0 mg/kg/injection, schedule: Q01DX011 (ip), vehicle: saline
  T/C: 76 % of control
dose: 100.0 mg/kg/injection, schedule: Q01DX011 (ip), vehicle: saline
  T/C: 69 % of control

## CCCCn1cnc2c(=S)nc(N)[nH]c21
dose: 0.25 mg/kg/injection, schedule: Q01DX011 (ip), vehicle: carboxymethylcellulose (CMC)
  T/C: 87 % of control
[7]
  T/C: 53 % of control
[8]
  T/C: 32 % of control and 40 % of control
[4]
  T/C: 6 % of control and 7 % of control
dose: 7.0 mg/kg/injection, schedule: Q01DX011 (ip), vehicle: carboxymethylcellulose (CMC)
  T/C: 12 % of control
dose: 15.0 mg/kg/injection, schedule: Q01DX011 (ip), vehicle: carboxymethylcellulose (CMC)
  T/C: 9 % of control

## O=c1[nH]c(=O)n(C2CC(O)C(CO)O2)cc1Br (stereo not drawn)
[10]
  T/C: 72 % of control
dose: 250.0 mg/kg/injection, schedule: Q01DX011 (ip), vehicle: carboxymethylcellulose (CMC)
  T/C: 52 % of control

## O=c1[nH]cc(F)c(=O)[nH]1
[4]
  T/C: 84 % of control
dose: 3.3 mg/kg/injection, schedule: Q01DX011 (ip), vehicle: carboxymethylcellulose (CMC)
  T/C: 101 % of control
dose: 6.0 mg/kg/injection, schedule: Q01DX011 (ip), vehicle: carboxymethylcellulose (CMC)
  T/C: 66 % of control and 44 % of control
dose: 6.7 mg/kg/injection, schedule: Q01DX011 (ip), vehicle: carboxymethylcellulose (CMC)
  T/C: 83 % of control
dose: 13.5 mg/kg/injection, schedule: Q01DX011 (ip), vehicle: carboxymethylcellulose (CMC)
  T/C: 69 % of control and 71 % of control
[9]
  T/C: 93 % of control
dose: 27.0 mg/kg/injection, schedule: Q01DX011 (ip), vehicle: carboxymethylcellulose (CMC)
  T/C: 22 % of control and 28 % of control

## Cn1c(O)c(N=NC(N)=S)c2ccccc21
[3]
  T/C: 110 % of control
dose: 30.0 mg/kg/injection, schedule: Q01DX011 (ip), vehicle: saline
  T/C: 105 % of control
dose: 60.0 mg/kg/injection, schedule: Q01DX011 (ip), vehicle: saline
  T/C: 108 % of control
dose: 120.0 mg/kg/injection, schedule: Q01DX011 (ip), vehicle: saline
  T/C: 75 % of control
dose: 240.0 mg/kg/injection, schedule: Q01DX011 (ip), vehicle: saline
  T/C: 94 % of control

## O=c1[nH]c(=O)n(C2CC(O)C(CO)O2)cc1F (stereo not drawn)
dose: 16.0 mg/kg/injection, schedule: Q01DX011 (ip), vehicle: saline
  T/C: 92 % of control
[5]
  T/C: 109 % of control
dose: 32.0 mg/kg/injection, schedule: Q01DX011 (ip), vehicle: saline
  T/C: 97 % of control
dose: 60.0 mg/kg/injection, schedule: Q01DX011 (ip), vehicle: carboxymethylcellulose (CMC)
  T/C: 72 % of control and 47 % of control
dose: 84.0 mg/kg/injection, schedule: Q01DX011 (ip), vehicle: saline
  T/C: 119 % of control
dose: 100.0 mg/kg/injection, schedule: Q01DX011 (ip), vehicle: carboxymethylcellulose (CMC)
  T/C: 4 % of control and 16 % of control
dose: 120.0 mg/kg/injection, schedule: Q01DX011 (ip), vehicle: carboxymethylcellulose (CMC)
  T/C: 18 % of control
dose: 126.0 mg/kg/injection, schedule: Q01DX011 (ip), vehicle: saline
  T/C: 16 % of control and 30 % of control

## O=P(c1ccccc1)(N1CC1)N1CC1
dose: 6.0 mg/kg/injection, schedule: Q01DX011 (ip), vehicle: saline
  T/C: 106 % of control
dose: 12.0 mg/kg/injection, schedule: Q01DX011 (ip), vehicle: saline
  T/C: 124 % of control
dose: 24.0 mg/kg/injection, schedule: Q01DX011 (ip), vehicle: saline
  T/C: 80 % of control

## N#CCSc1nc(N)nc2nc[nH]c12
dose: 31.25 mg/kg/injection, schedule: Q01DX011 (ip), vehicle: carboxymethylcellulose (CMC)
  T/C: 83 % of control
dose: 62.5 mg/kg/injection, schedule: Q01DX011 (ip), vehicle: carboxymethylcellulose (CMC)
  T/C: 40 % of control
[10]
  T/C: 31 % of control
